From patent US20220105051A1, “COMPOUNDS FOR INCREASING MHC-I EXPRESSION AND MODULATING HISTONE DEACETYLASE ACTIVITY” (Cava Healthcare Inc., priority 2019, published 2022)
“Also recorded” adds a separate entry of the source.

Experiments:
[1] = system: MHC-I; experiment: MHC-I surface expression by flow cytometry; format: cell-based, murine; details: for induction of MHC-I expression at the cell surface: 48 hours after treatment, flow cytometry; for MHC class I upregulation: relative to DMSO
Method: (§1) A9 and TC-1 cell lines were trypsinized (0.05%, Gibco), washed twice with PBS (Gibco), and stained with allophycocyanin (APC) conjugated anti-mouse H-2K^b antibody (1:200, Biolegend) suspended in 150 μL of FACS buffer (PBS+2% FBS) for 20 minutes at 4° C. Cells were washed twice with PBS and re-suspended in 200 μL FACs buffer containing 1 μL of 7-aminoactinomycin (7AAD) viability stain (Biolegend). Flow cytometry was performed on the LSRII (BDBiosciences) and analysis was done using FlowJo (Flow cytometry Analysis Software).
(§2) The marine extract library was provided by Dr. Raymond J. Andersen (UBC). The marine invertebrate specimens were collected by SCUBA diving at a 40 metre depth from regions of high marine biodiversity in Papua New Guinea, Indonesia, Thailand, Sri Lanka, Dominica, Brazil, British Columbia, South Africa, and Norway 35. Previously curcuphenol was identified as the active component in one of the marine extracts showing induction of the APM, and since then two new generations of curcuphenol analogues were synthesized in the lab of Dr. Raymond Anderson. To evaluate the ability of these compounds to induce MHC-I surface expression, A9 cells were plated in 6 well plates at 10^5 cells/well and incubated for 24 hours at 37° C. in a 5% CO2 humidified atmosphere. After 24 hours the medium was removed and replaced with medium containing varying concentration of synthesized compounds (6.7 μg/mL, 20 μg/mL, 60 μg/mL). […] Following treatment, cells were incubated for 48 hours at 37° C. with 5% CO2 and humidified atmosphere. After incubation cells were subjected to flow cytometry.
Evaluation of MHC-I surface expression by flow cytometry. LMD:TAP-1 cells or A9 cells were plated in 6 well plates at a concentration of 10,000 cells per well in a 2 mL volume. The next day, cells were treated with the indicated concentrations of the compounds and incubated for 48 hours at 37° C. After incubation, the cells were trypsinized, washed and stained with APC-conjugated anti-mouse MHC-I (specifically anti-H-2K^b) antibody (Biolegend) and assessed by flow cytometry analysis.

[2] = system: A9 cell line; experiment: Cytotoxicity / live cell frequency in A9 cells (flow cytometry, 7AAD); format: cell-based, murine; details: for cytotoxicity: 48 hours after treatment
Method: as §1, §2

[3] = biological target: T1, HDAC8 (Homo sapiens, UniProt Q9BY41); experiment: Individualized HDAC assay, HDAC8; format: biochemical; details: purified enzyme; for concentration at which HDAC8 inhibition was seen: 5 to 0.02 μM tested; for HDAC8 activity at higher concentrations: up to 5 μM
T1 construct: purchased BPS Biosciences
T1 sequence (Q9BY41 1-377): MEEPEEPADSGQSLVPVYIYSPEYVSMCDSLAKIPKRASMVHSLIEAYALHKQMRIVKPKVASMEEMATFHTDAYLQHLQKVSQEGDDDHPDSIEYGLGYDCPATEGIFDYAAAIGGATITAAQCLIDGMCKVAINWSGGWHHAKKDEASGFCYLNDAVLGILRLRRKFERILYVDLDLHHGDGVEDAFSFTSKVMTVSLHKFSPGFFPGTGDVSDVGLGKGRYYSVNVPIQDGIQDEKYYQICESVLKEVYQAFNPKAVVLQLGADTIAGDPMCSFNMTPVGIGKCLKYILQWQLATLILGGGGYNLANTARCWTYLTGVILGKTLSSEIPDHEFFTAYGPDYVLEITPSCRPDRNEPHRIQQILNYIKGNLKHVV
Method: (§3) The activity of the curcuphenol analogues was assessed with purified HDAC enzymes from all classes I, II, and IV, as well as a select member of HDAC class III (SIRT1). HDACs 1-9 and SIRT1 were evaluated using HDAC Fluorogenic Assay Kits (BPS Biosciences). All assays were completed in black-sided clear-bottom 96 well plates (PerkinElmer), and all treatments were plated in triplicates. Treatment started at 5 μM and was two-fold diluted to a concentration 0.02 μM. The assays were measured using the Synergy HI hybrid reader (BioTek) and Gen5 software (BioTek), excitation was set to 360 nm and detection was measured at 450 nm with a gain of 100. Alternatively HDAC 10 and 11 (BPS Biosciences) were optimized for HDAC concentration using the HDAC-Glo™ I/II Assay and Screening System (Promega). Following optimization each HDAC was run following the Promega protocol in black-sided clear-bottomed 96 well plates in triplicates with same treatments listed above (PerkinElmer). Luminescence was read 30 minutes after HDAC-Glo™I/II reagent was added using the Synergy HI hybrid reader (BioTek) and Gen5 software (Bio-Tek). […] To calculate percent activity, the average of blank wells was subtracted from all treatment groups. The relative mean of activity of the HDAC being measured was determined and all wells that received treatment were divided this average, to give a percentage of activity.
(§4) To evaluate the effect of the compounds on specific HDACs, their activity was assessed with purified HDAC enzymes from all classes I, II, and IV, as well as a select member of HDAC class III (SIRT1). HDACs 1-9 and SIRT1 were evaluated using HDAC Fluorogenic Assay Kits (BPS Biosciences) following the manufacturer's recommendations. Compound treatment started at 5 μM and was two-fold diluted to a concentration 0.02 μM. Alternatively, HDAC 10 and 11 assays (BPS Biosciences) were optimized to be used with the HDAC-Glo™ I/II Assay and Screening System (Promega). The assays were measured using the Synergy HI hybrid reader (BioTek) and Gen5 software (Bio-Tek). […] To calculate the fold change in HDAC activity, the values from each treated well were divided by the relative mean of activity of the specific HDAC being measured.

[4] = biological target: T2, HDAC10 (Homo sapiens, UniProt Q969S8); experiment: Individualized HDAC assay, HDAC10 (HDAC-Glo); format: biochemical; details: purified enzyme; for HDAC10 activity: 5 to 0.02 μM
T2 construct: purchased BPS Biosciences
T2 sequence (Q969S8 1-669): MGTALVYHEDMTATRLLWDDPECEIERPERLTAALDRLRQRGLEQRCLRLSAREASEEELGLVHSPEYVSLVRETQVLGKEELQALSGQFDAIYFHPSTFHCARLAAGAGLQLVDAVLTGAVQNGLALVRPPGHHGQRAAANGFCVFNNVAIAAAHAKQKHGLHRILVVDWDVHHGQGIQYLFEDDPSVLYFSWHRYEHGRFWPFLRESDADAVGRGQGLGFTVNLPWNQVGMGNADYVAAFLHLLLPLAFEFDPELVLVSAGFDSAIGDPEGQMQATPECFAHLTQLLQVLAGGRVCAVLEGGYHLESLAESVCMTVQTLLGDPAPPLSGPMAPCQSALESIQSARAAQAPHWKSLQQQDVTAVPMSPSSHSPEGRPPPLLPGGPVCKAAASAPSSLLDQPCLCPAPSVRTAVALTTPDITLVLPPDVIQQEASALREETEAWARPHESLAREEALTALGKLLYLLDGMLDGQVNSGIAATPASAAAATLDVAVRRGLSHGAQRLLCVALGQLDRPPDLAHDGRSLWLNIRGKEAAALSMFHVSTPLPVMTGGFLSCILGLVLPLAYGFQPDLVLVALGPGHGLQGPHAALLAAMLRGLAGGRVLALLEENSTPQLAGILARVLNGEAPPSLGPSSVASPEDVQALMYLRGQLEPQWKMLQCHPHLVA
Method: as §3, §4

SMILES	concentration of optimum MHC upregulation and live cell frequency ([1]; A9 cells, 48 hours) [µmol]	induction of MHC-I expression at the cell surface ([1]; A9 cells)	MHC class I upregulation ([1]; A9 cells, 48 hours, 0.032, 0.064 and 0.128 μmol)	MHC class I upregulation ([1]; A9 cells, 48 hours, 0.055, 0.064 and 0.071 umol)	surface MHC I molecules ([1]; cancer cell lines in vitro)	cytotoxicity [2]	live cell frequency ([2]; 48 hours, 0.128 μmol)	effect on HDAC8 activity [3]	HDAC10 activity [4]	concentration at which HDAC8 inhibition was seen [3] [µM]	HDAC8 activity at higher concentrations [3]	concentration range of HDAC10 enhancement [4]	HDAC10 activity ([4]; listed as PO-3-97-1)
CC(C)=CCC[C@H](C)c1ccc(C)cc1O [Curcuphenol, curcuphenol]	0.064	enhances the expression of MHC-I	upregulated	upregulated	significantly increased	low cellular toxicity	drops substantially	selectively inhibits	activates	–	–	–	–
CC(C)=CCCCc1ccc(C)cc1O [P02-113]	–	strong induction of MHC-I; also recorded: greatest consistent induction of MHC-I expression; also recorded: highest expression of MHC-I	–	–	–	low cytotoxicity; also recorded: lowest cytotoxicity	–	act as inhibitors to HDAC8; also recorded: slight inhibition at lower concentrations	enhanced; also recorded: increase in activity levels	≤ 0.3	no change in HDAC8 activity	enhanced at all concentrations tested	–
COc1ccc(C(C)CCC=C(C)C)c(O)c1 (stereo not drawn) [P03-97-1]	–	strong induction of MHC-I; also recorded: greatest consistent induction of MHC-I expression; also recorded: highest expression of MHC-I	–	–	–	low cytotoxicity; also recorded: lowest cytotoxicity	–	act as inhibitors to HDAC8; also recorded: slight inhibition at lower concentrations	enhanced; also recorded: increase in activity levels	0.02	no change in activity	enhanced at all concentrations tested	enhanced
